{
  "source": "patent US20250319015A1",
  "about": "“VACCINIUM MACROCARPON EXTRACT AND ANTI-AGEING COSMETIC EFFECTS THEREOF” (SOCIETE INDUSTRIELLE LIMOUSINE D'APPLICATION BIOLOGIQUE, priority 2021, published 2025)",
  "key": {"[1]": {"test_system": "healthy Caucasian female volunteers", "test": "Complexion radiance by visual scoring by experts, Caucasian volunteers", "format": "in vivo, human", "conditions": "Retinol 0.075%", "procedure": "The complexion radiance is evaluated by experts using the following parameters: radiance, […], olive color and eye fatigue."}, "[2]": {"test_system": "healthy Caucasian female volunteers", "conditions": "retinol 0.075%, 18 volunteers", "quoted_text": "(§1) This study was carried out on 3 groups of 18 healthy, female volunteers, aged 45 to 66 years and presenting with crow's feet wrinkles. Each of the volunteers applied two of the three formulae to half the face twice-daily in a randomized manner for 42 days."}, "aquaporin 3": {"test_system": "aquaporin 3", "test": "Aquaporin 3 synthesis in reconstructed epidermises (immunohistofluorescence)", "format": "cell-based, human", "conditions": "older reconstructed epidermises, 10 μM Retinol", "procedure": "This study was carried out on normal and older reconstructed epidermises. The epidermal construction was evaluated using a Hematoxylin Eosin (HE) stain and the synthesis of the barrier function markers by immunohistofluorescence. The procedure of the study is described below. […] The epidermides are recovered, fixed, dehydrated, and enclosed in paraffin. Sections (4 μm) are then made using a microtome. […] Viewing is performed using a microscope coupled to an image analysis system. The thickness of the epidermises obtained was measured on the histological sections produced. The rate of the various synthesized markers is proportional to the intensity of green fluorescence present on the reconstructed epidermises. A quantitative analysis of the images was carried out using an image analysis script. The results are expressed in arbitrary units (AU)."}, "hyaluronic acid": {"test_system": "hyaluronic acid", "test": "Hyaluronic acid synthesis by ELISA on older human fibroblasts", "format": "cell-based", "conditions": "1 μM Retinol", "quoted_text": "The older human fibroblasts are seeded and incubated at 37° C. in an atmosphere containing 5% CO2.\nThe cells are then incubated at 37° C. in an atmosphere containing 5% CO2 for 48 hours."}, "[3]": {"test_system": "healthy Caucasian female volunteers", "test": "Transepidermal water losses (Tewameter), Caucasian volunteers", "format": "in vivo, human", "conditions": "Retinol 0.075%", "quoted_text": "Transepidermal water losses (TEWL) measurements at the cheeks were carried out using a Tewameter® before and after 21 and 42 days of twice-daily application.\nas §1"}, "older human cells": {"test_system": "older human cells", "test": "Gene expression by quantitative PCR, structural elements of the DEJ, older cells", "format": "cell-based", "conditions": "1 μM Retinol", "procedure": "This study was carried out on 34 genes involved in the various processes related to the establishment of: • the skin barrier function: proliferation, hydration, cohesion, differentiation, desquamation, innate immunity, anti-oxidant and inflammation system (cf. Table 9: Proliferation, Hydration, Cohesion, Differentiation, Anti-Radical and Inflammation). • the dermal-epidermal junction DEJ; • the dermal matrix; organization and degradation of the fibers, hydration and inflammation (cf. Table 9: Matrix Organization, Matrix Degradation, Hydration, Proteoglycan, Growth and Inflammation Factors). […] The procedure of the study is described below. The young and older human cells are seeded and incubated at 37° C. […] After several days, the cells are recovered and the total RNA extracted. The RNAs were reverse-transcribed and the complementary DNAs obtained were analyzed by the quantitative PCR technique. The mRNAs of internal reference controls were analyzed in parallel with the mRNAs of the markers involved in the barrier function of the epidermis, in the DEJ and in the dermal matrix. The incorporation of fluorescence is measured continuously using a thermal cycler. The RQ (relative quantification) analysis is performed using software."}},
  "note": "Marks after values point to notes of the source that are not given here.",
  "data": [
    {"compound": "CC1=C(/C=C/C(C)=C/C=C/C(C)=C/CO)C(C)(C)CCC1", "note": "[Retinol, retinol]", "values": [
      {"measurement": "Eye fatigue, change compared to placebo", "setting": "[1]; D 21", "value": "−2", "unit": "%"},
      {"measurement": "Olive color, change compared to placebo", "setting": "[1]; D 21", "value": "−11", "unit": "%"},
      {"measurement": "Pinkness, change compared to placebo", "setting": "[1]; D 21", "value": "+14%"},
      {"measurement": "Radiance, change compared to placebo", "setting": "[1]; D 21", "value": "+6%"},
      {"measurement": "Eye fatigue, change compared to placebo", "setting": "[1]; J42", "value": "−10", "unit": "%"},
      {"measurement": "Olive color, change compared to placebo", "setting": "[1]; J42", "value": "−10", "unit": "%"},
      {"measurement": "Pinkness, change compared to placebo", "setting": "[1]; J42", "value": "+19%"},
      {"measurement": "Radiance, change compared to placebo", "setting": "[1]; J42", "value": "+11%"},
      {"measurement": "Incident rate of adverse effects", "setting": "[2]", "value": 17, "unit": "%"},
      {"measurement": "Subjects who demonstrated adverse effects likely caused by the study product", "setting": "[2]; 42 days", "value": "three"},
      {"measurement": "Ability to restore aquaporin 3 synthesis (%)", "setting": "aquaporin 3", "value": "+100%"},
      {"measurement": "Aquaporin 3 synthesis (×10^4 AU)", "setting": "aquaporin 3; 48 hours", "value": "355** ×10^4 AU"},
      {"measurement": "Synthesis of hyaluronic acid (ng/mg proteins)", "setting": "hyaluronic acid; Older fibroblasts, 48 hours", "value": 4112, "unit": "ng/mg proteins"},
      {"measurement": "Content of hyaluronic acid/control (%)", "setting": "hyaluronic acid; older fibroblasts", "value": "+8%"},
      {"measurement": "Water loss, change compared to placebo", "setting": "[3]; D 21", "value": "+24%"},
      {"measurement": "Water loss, change compared to placebo", "setting": "[3]; D 21, listed as retinol", "value": "+24%"},
      {"measurement": "Water loss, change compared to placebo", "setting": "[3]; D 42", "value": "+15%"},
      {"measurement": "Water loss, change compared to placebo", "setting": "[3]; D 42, listed as retinol", "value": "+15%"},
      {"measurement": "COL4A1: Efficacy of retinol/older control (%)", "setting": "older human cells", "value": "−5", "unit": "%"},
      {"measurement": "COL7A1: Efficacy of retinol/older control (%)", "setting": "older human cells", "value": "−21", "unit": "%"},
      {"measurement": "COL17A1: Efficacy of retinol/older control (%)", "setting": "older human cells", "value": "−16", "unit": "%"},
      {"measurement": "LAMA3: Efficacy of retinol/older control (%)", "setting": "older human cells", "value": "−9", "unit": "%"},
      {"measurement": "COL4A1 expression (qPCR)", "setting": "older human cells; young cells control=100", "value": 38},
      {"measurement": "COL7A1 expression (qPCR)", "setting": "older human cells; young cells control=100", "value": 68},
      {"measurement": "COL17A1 expression (qPCR)", "setting": "older human cells; young cells control=100", "value": 81},
      {"measurement": "LAMA3 expression (qPCR)", "setting": "older human cells; young cells control=100", "value": 94}
    ]}
  ]
}
